According to PubChem BioAssay (NCI):
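1) Cells in 96-well plates. 2) Compound, 48 h, 5 concentrations. 3) Linear interpolation between surrounding doses. 4) Unreached endpoint = highest concentration. TGI: concentration producing complete growth inhibition.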

What was measured:
Assay in all cases: inhibition of tumour cell growth, NCI panel, 48 h
[1] = test system: A498 renal
[2] = test system: A549 NSCLC
[3] = test system: CCRF-CEM leukemia
[4] = test system: COLO 205 colon
[5] = test system: HT29 colon
[6] = test system: K-562 leukemia
[7] = test system: MCF7 breast
[8] = test system: MDA-MB-435
[9] = test system: OVCAR-3 ovarian
[10] = test system: SF-295 CNS
[11] = test system: SK-MEL-2 melanoma
[12] = test system: SK-MEL-5 melanoma
[13] = test system: SNB-19 CNS
[14] = test system: SW-620 colon
[15] = test system: ACHN renal
[16] = test system: EKVX NSCLC
[17] = test system: HOP-92 NSCLC
[18] = test system: OVCAR-5 ovarian
[19] = test system: RXF 393 renal

SMILES | TGI [1] [µM] | TGI [2] [µM] | TGI [3] [µM] | TGI [4] [µM] | TGI [5] [µM] | TGI [6] [µM] | TGI [7] [µM] | TGI [8] [µM] | TGI [9] [µM] | TGI [10] [µM] | TGI [11] [µM] | TGI [12] [µM] | TGI [13] [µM] | TGI [14] [µM] | TGI [15] [µM] | TGI [16] [µM] | TGI [17] [µM] | TGI [18] [µM] | TGI [19] [µM]
OB1OCc2ccccc21 | > 100 | > 100 | 54.9 | > 100 | > 100 | > 100 | 82.1 | > 100 | > 100 | 40.9 | > 100 | > 100 | > 100 | > 100 |  |  |  |  | 
COC(=O)C1(C(=O)OC)CC2=C(S(=O)(=O)c3ccccc3)C[C@@H](C#N)[C@H]2C1 | > 100 | > 100 | > 100 | > 100 | > 100 | > 100 | > 100 | > 100 | 75.6 | > 100 | > 100 | > 100 | > 100 | > 100 | > 100 | > 100 | > 100 | > 100 | 
O=c1[nH]/c(=C/c2ccc(OCc3ccccc3)cn2)c(=O)[nH]/c1=C/c1cccnc1 | 6.46 | > 100 |  | 6.13 | > 100 |  | > 100 | 0.261 |  | 1.65 | > 44.1 |  | > 100 | > 100 | > 100 | > 75.2 | > 100 | > 100 | > 100
CCOC(=O)C1C(=O)C=C(c2cc(C)ccc2O)CC1c1cccc(Br)c1 (centres undefined) |  | 51.2 | 71.7 | 31.1 | 37.5 | 46.8 | 87.1 | 8.81 | 84.8 | 35.5 | 39.4 | 28.5 | 32.5 | > 100 | 42.2 | 67.6 | 29.8 | 68.9 | 33.4
COc1cc(C2c3cc4c(c(O)c3C(=O)C3CCC(=O)N32)OCO4)cc(OC)c1OC (centres undefined) | > 100 | > 100 | > 100 | > 100 | > 100 | > 100 | > 100 | 58.9 | > 100 | > 100 | > 100 | > 100 | > 100 | > 100 | > 100 | > 100 | 86.7 | > 100 | 
COc1cc2c(cc1C)NC(=O)/C2=C/c1c(Cl)n(C)c2ccccc12 | 21.5 | 42 | > 100 | 31.2 | 22.5 | > 100 | 25.7 | 3.69 | 15.3 | 29.4 | 30.4 | 22 | 38.6 | > 100 | 25.7 | 28.1 |  | 36.4 | 19.6
Nc1c2ccccc2nc2ccc(C(=O)Nc3ccc(S(N)(=O)=O)cc3)cc12 |  | > 100 | > 100 | > 100 | > 100 | > 100 | > 100 | > 100 | > 100 | > 100 | > 100 | > 100 | > 100 | > 100 | > 100 | > 100 | > 100 | > 100 | > 100
COCN1C(=O)[C@@H]2C[C@@H](OC/C=C/CBr)CN2C(=O)c2ccccc21 | 66.4 | 35.5 | > 100 | 42.8 | 82.1 |  | 33.7 | 50.9 |  | 46.5 | > 100 | 34.8 | 67.2 | 45.6 | 54.8 | 50.4 |  | 49.7 | 51.3
COc1cc(NS(C)(=O)=O)ccc1N1Cc2cnc3ccc4[nH]ccc1c4c23 | > 100 | > 100 | > 100 | > 100 | > 100 | > 100 | > 100 | > 100 | > 100 | > 100 | 64.6 | 75.8 | > 100 | > 100 | > 100 | > 100 | > 100 | > 100 | 
O=S(=O)(CC#CCS(=O)(=O)c1ccccc1)c1ccccc1 | 36.3 | 37.5 |  | 5.19 | 27.7 |  | 6.7 | 3.83 | 2.91 | 43.6 | 19.4 | 10.4 | 32.9 | > 100 | 3.25 | 12.1 | 3.39 | 19.7 | 3.38
C[N+]12C=CC=C1C(N1CCCC1)c1sc(-c3ccc(Cl)cc3)cc12 (centres undefined) | 41.4 | 87.6 | 62.8 | 31.6 | 34.3 |  | 28.3 | 29.1 | 26.5 | 43.7 | 21.1 | 31.8 | 26.8 | 29.9 | > 100 | 79 |  | 35.8 | 31.9
CCOC(=O)C1(C/C=C\CBr)CCCCCCC1=O (centres undefined) | > 100 | > 100 | > 100 | > 100 | > 100 |  | > 100 | > 100 |  | > 100 | > 100 | > 100 | > 100 | > 100 | > 100 | > 100 |  | > 100 | > 100
O=C1c2ccccc2C(=O)c2c1c1cc(O)ccc1n2Cc1ccc(Cl)cc1Cl | 38.1 | 13.3 | 18.9 | 29.8 | 51 | > 100 | 16.5 | 27.8 |  | 20.1 | 33.9 | 47.4 | 34.7 | > 100 |  |  |  | 5.66 | 9.44
O=C1NC(N2CCCC(CO)C2)=N/C1=C\c1ccc(O)cc1 (centres undefined) |  | > 100 | > 100 | > 100 | > 100 | > 100 | > 100 | > 100 | > 100 | > 100 | > 100 | > 100 | > 100 | > 100 | > 100 | > 100 | > 100 | > 100 | > 100
O=C1CSC(c2ccc(Cl)cc2)N1c1ccc(-n2c(-c3ccccc3)nc3ccccc3c2=O)cc1 (centres undefined) | > 100 | > 100 | > 100 | > 100 | > 100 | > 100 | > 100 | > 100 | > 100 | > 100 | > 100 | > 100 | > 100 | > 100 | > 100 | > 100 | > 100 | > 100 | 
Cc1c2cccc-2c(N(C)C)cc2c1[nH]c1ccccc12 | 37.8 | 18.6 | 12.8 | 3.42 | 18.2 |  | 24.1 | 22.5 | > 100 | 25.3 |  | 18.5 | 22.1 | 18.9 | 12.4 | 5.05 | 3.54 | 9.35 | 
Clc1ccc(CCN2CCN(CCCc3ccccc3)CC2)cc1Cl | 30 | 29.9 | > 100 | 31.6 | 26.9 | > 100 | 33.8 | 31.1 | 30.9 | 30 | 36.4 | 29.9 | 30.8 | 51.6 | 39.4 | 32.9 | 23.6 | 29.9 | 
N#C/C(=C/NC(=S)Nc1ccc(S(N)(=O)=O)cc1)C(N)=O | > 100 | > 100 |  | > 100 | > 100 |  | > 100 | > 100 | > 100 | > 100 |  | > 100 |  | > 100 | > 100 | > 100 | > 100 | > 100 | > 100
O=C(C(=O)n1ccc2ccccc21)c1c[nH]c2ccccc12 |  | > 10 | > 10 | > 10 | > 10 | > 10 | > 10 | > 10 | > 10 | > 10 | > 10 | > 10 | > 10 | > 10 | > 10 | > 10 | > 10 | > 10 | > 10
CCCCCCCCCCCCCCCCCc1nc(C#N)c(N)o1 | > 100 | > 100 | > 100 |  | > 100 | > 100 | > 100 | > 100 |  |  | > 100 | > 100 | > 100 | > 100 | > 100 | > 100 | > 100 | > 100 | 
O=C(c1ccccc1)c1cc(-c2ccccc2)c(-c2ccccc2)[nH]c(=O)c1=O | > 100 | > 100 | > 100 | 61.5 | > 100 | > 100 | > 100 | > 100 | > 100 | > 100 | 57.5 | > 100 | > 100 | > 100 | > 100 | > 100 | > 100 | > 100 | 
